Changes are numbered by the printed parent chain.
How the values were obtained:
Experiment in all cases: FlexStation membrane potential dye functional assay, HEK293 cells
Assay type in all cases: cell-based
Parameters in all cases: expressed in transfected cells; host or cells: HEK293
5-HT3A receptor Y73F = biological target: T1, 5-HT3A receptor Y73F (Homo sapiens, UniProt P46098, Y68F); conditions: 5-HT3A Y73F
T1 sequence (P46098 24-478 Y68F): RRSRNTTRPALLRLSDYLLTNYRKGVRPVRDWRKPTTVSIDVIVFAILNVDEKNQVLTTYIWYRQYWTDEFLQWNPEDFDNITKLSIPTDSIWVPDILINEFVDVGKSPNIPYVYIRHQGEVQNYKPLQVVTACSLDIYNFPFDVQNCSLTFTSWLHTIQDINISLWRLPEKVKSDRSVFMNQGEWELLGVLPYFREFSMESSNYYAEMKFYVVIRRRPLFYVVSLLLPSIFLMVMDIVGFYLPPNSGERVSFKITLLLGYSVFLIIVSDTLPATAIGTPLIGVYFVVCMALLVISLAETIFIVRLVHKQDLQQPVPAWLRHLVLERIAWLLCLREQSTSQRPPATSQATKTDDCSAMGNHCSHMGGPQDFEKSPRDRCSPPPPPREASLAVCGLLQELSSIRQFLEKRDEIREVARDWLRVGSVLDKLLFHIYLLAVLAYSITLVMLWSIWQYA
Experimental: (§1) Human embryonic kidney (HEK) 293 cells were cultured on 90 mm tissue culture plates at 37 °C and 7% CO2 in a humidified atmosphere. They were grown in DMEM:F12 (Dulbecco’s Modified Eagle’s Medium/Nutrient Mix F12 (1:1)) with GlutaMAX I™ containing 10% fetal calf serum and passaged when confluent. […] For FlexStation assays, transfected cells were plated on 96-well plates and incubated 1–2 days before assay.
(§2) Fluorometric studies were undertaken using a FlexStation® (Molecular Devices, Sunnyvale, CA, USA) as previously described.[11]
(§3) Fluorescence was measured every 2 s for 200 s. […] Concentration–response and inhibition curves were obtained for each mutant, and the fluorescence values were normalized to the maximal response.

5-HT3A receptor Y73S = biological target: T2, 5-HT3A receptor Y73S (Homo sapiens, UniProt P46098, Y68S); conditions: 5-HT3A Y73S
T2 sequence (P46098 24-478 Y68S): T1 sequence (P46098 24-478 Y68F) with F45S
Experimental: as §1, §2, §3

5-HT3A receptor F130A = biological target: T3, 5-HT3A receptor F130A (Homo sapiens, UniProt P46098, F125A); conditions: 5-HT3A F130A
T3 sequence (P46098 24-478 F125A): T1 sequence (P46098 24-478 Y68F) with F45Y, F102A
Experimental: as §1, §2, §3

5-HT3A receptor D165K = biological target: T4, 5-HT3A receptor D165K (Homo sapiens, UniProt P46098, D160K); conditions: 5-HT3A D165K
T4 sequence (P46098 24-478 D160K): T1 sequence (P46098 24-478 Y68F) with F45Y, D137K
Experimental: as §1, §2, §3

[1] = inhibition of 5-HT (EC50 concentration) response, 45 min preincubation

SMILES	IC50 (5-HT3A receptor Y73F; [1])	IC50 (5-HT3A receptor Y73S; [1])	IC50 (5-HT3A receptor F130A; [1])	IC50 (5-HT3A receptor D165K; [1])	Hill Coefficient (5-HT3A receptor Y73F; 5-HT concentration-response)	Hill Coefficient (5-HT3A receptor Y73S; 5-HT concentration-response)	Hill Coefficient (5-HT3A receptor F130A; 5-HT concentration-response)	Hill Coefficient (5-HT3A receptor D165K; 5-HT concentration-response)
O=C1c2cccc3c2[C@H](CCC3)CN1[C@@H]1CN2CCC1CC2 [Palonosetron]	1.23 ± 0.15 nM	3.64 ± 1.1 nM	4.4 ± 1.8 nM	1.3 ± 0.43 nM				
NCCc1c[nH]c2ccc(O)cc12 [5-HT, serotonin]					2.3 ± 0.3	2.0 ± 0.3	1.5 ± 0.2	3.0 ± 0.3
